Test results: patent US10519162B2, “6,7-dihydropyrazolo[1,5-α]pyrazin-4(5H)-one compounds and their use as negative allosteric modulators of mGluR2 receptors” (Janssen Pharmaceutica NV, priority 2014, dated 2019)
Like-named read-outs stand apart in the source and are kept apart here.

Assays:
[1] = system: rats; assay: Reversal of the effect of the mGluR2 PAM JNJ-42153605-induced inhibition of scopolamine-induced hyperlocomotion (SCOP JNJ-42153605); format: in vivo, rat; details: for ED50: Rattus norvegicus, PO (oral route), rats, reversal criterion total distance >1500 cm
Method: 2) Reversal of the Effect of the mGluR2 PAM JNJ-42153605-Induced Inhibition of Scopolamine-Induced Hyperlocomotion Apparatus
Motor activity was measured in microprocessor-based motor activity arenas (closed gray PVC cylinders with a height of 39 cm and a diameter of 31 cm). Each arena was placed on an infrared LED (8×8 LEDs) lit box (white PVC squared box; 40×40 cm^2; height 12.5 cm. An infrared-sensitive tube camera and a white light source were mounted to the ceiling above the observation chamber to track the animal. The total distance traveled (cm) was recorded and analyzed using the Noldus Ethovision XT Video Tracking System (Version 7.0.418; Noldus, Wageningen, The Netherlands). The intensity of the light within the activity cages (measured in the centre at the level of the floor) ranged between 4 and 8 LUX.
The rats were pretreated with test compound or vehicle at 60 min before the start of the activity recordings and placed into individual cages. The rats were challenged with JNJ-42153605 (3-(cyclopropylmethyl)-7-(4-phenylpiperidin-1-yl)-8-(trifluoromethyl)[1,2,4]triazolo[4,3-a]pyridine; WO2010/130424; Cid et al. J. Med. Chem. 2012, 55, 8770-8789) (20 mg/kg, i.v.) 30 min before the start of the activity recording combined with scopolamine (0.16 mg/kg, i.v.) just before the start of the activity measurements. Immediately after the injection of scopolamine, the rats were placed into the activity monitors and total distance travelled over the first 30 min was measured.
Solvent-Pretreated Control Rats.
Animals receiving the combination of JNJ-42153605 and scopolamine (n=433) almost always travelled a distance of less than 1500 cm (<1500 cm) (only 2.5% of the control rats travelled a distance of more than 1500 cm (>1500 cm)). On the other hand, animals challenged with scopolamine alone (n=215) always travelled a total distance of more than 1500 cm (>1500 cm) and almost always (in 95.8% of the rats) a distance of more than 4400 cm (>4400 cm). […] For reversal of the inhibitory effect of JNJ-42153605 on the scopolamine-induced hyperlocomotion, the following all-or-none criteria were adopted: (1) reversal: total distance >1500 cm.

[2] = molecular target: T1, human mGlu2 receptor (Homo sapiens, UniProt Q14416); assay: [35S]GTPγS binding assay (mGluR2 negative allosteric modulation, glutamate ~EC80 60 μM); format: biochemical; details: for Emax: read-out: GTPγS-hmGluR2 anGT Emax; for IC50: glutamate ~EC80 (60 μM), pIC50 = −log IC50 (M)
T1 construct: expressed in transfected cells; host or cells: CHO cells
Method: 1) [^35S]GTPγS Binding Assay
[^35S]GTPγS Binding Assay
Total reaction volume was 200 μl. […] Membrane-bound radioactivity was counted in a Topcount.

[3] = maximal % inhibition relative to the control glutamate response (EC80 glutamate)
[4] = membranes from CHO cells transfected with human mGlu2 receptor, read-out: GTPγS-hmGluR2 anGT pIC50 (converted)
[5] = historical solvent-pretreated control rats, first 30 min

T1 sequence (Q14416 19-872): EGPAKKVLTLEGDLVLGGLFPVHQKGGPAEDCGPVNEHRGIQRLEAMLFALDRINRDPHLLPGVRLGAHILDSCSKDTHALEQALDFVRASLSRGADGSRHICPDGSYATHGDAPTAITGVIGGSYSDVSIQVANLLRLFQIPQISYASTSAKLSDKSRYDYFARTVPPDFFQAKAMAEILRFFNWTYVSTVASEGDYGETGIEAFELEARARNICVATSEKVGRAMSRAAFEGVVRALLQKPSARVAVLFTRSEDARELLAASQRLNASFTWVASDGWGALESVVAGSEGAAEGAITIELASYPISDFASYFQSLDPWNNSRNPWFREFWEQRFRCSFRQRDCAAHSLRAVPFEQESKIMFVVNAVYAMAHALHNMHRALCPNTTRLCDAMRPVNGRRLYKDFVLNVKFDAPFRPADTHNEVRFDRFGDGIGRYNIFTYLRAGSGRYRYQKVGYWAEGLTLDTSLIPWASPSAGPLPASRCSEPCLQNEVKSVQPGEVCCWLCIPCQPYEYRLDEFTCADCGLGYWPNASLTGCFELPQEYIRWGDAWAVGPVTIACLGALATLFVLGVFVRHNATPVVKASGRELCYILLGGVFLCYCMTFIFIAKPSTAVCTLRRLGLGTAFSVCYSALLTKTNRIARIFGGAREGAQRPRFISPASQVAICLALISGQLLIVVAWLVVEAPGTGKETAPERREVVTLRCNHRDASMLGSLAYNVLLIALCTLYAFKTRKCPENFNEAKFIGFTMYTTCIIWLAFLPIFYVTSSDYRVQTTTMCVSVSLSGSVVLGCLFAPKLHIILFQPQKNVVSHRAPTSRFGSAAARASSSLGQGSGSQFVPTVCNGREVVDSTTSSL

Compound | ED50 [1] [mg/kg] | Emax [2, 3] [%] | IC50 [2, 4] [M] | melting point [°C] | Rats with total distance >1500 cm (%) [1, 5] [%] | Rats with total distance >4400 cm (%) [1, 5] [%] | Total distance travelled, median (cm) ([1]; historical solvent-pretreated control rats, first 30 min, scopolamine 0.16 mg/kg i.v., JNJ-42153605 20 mg/kg i.v.) | IC50 ([2]; GTPγS-hmGluR2 anGT pIC50, membranes from CHO cells transfected with human mGlu2 receptor) [M] | Emax [2] [%]
COc1cncc(C(=O)Nc2cnn3c2C(=O)N(c2ccc(C(F)(F)F)c(Cl)c2)C[C@@H]3C)c1 [Co. No. 150] | > 0.63 | 107 | 1.66e-09 | 133.07 | – | – | – | – | –
C[C@H]1CN(c2ccc(Cl)cc2)C(=O)c2c(NC(=O)c3cccnc3N)cnn21 [Co. No. 198] | > 0.63 | 109 | 4.07e-09 | 209.11 | – | – | – | – | –
C[C@H]1CN(c2ccc(C(F)(F)F)c(Cl)c2)C(=O)c2c(NC(=O)c3ccccc3)cnn21 [Co. No. 2] | > 2.5 | 105 | 1.32e-09 | 161.54 | – | – | – | – | –
Cc1cncc(C(=O)Nc2cnn3c2C(=O)N(c2ccc(C(F)(F)F)cc2)C[C@@H]3C)c1 [Co. No. 99] | > 2.5 | 114 | 3.98e-09 | 165.21 | – | – | – | – | –
Cc1cncc(C(=O)Nc2cnn3c2C(=O)N(c2ccc(Cl)c(Cl)c2)C[C@@H]3C)c1 [Co. No. 108] | > 0.63 | 109 | 9.77e-10 | 185.71 | – | – | – | – | –
Cc1cc(N2C[C@H](C)n3ncc(NC(=O)c4cnccn4)c3C2=O)ccc1C(F)(F)F [Co. No. 114] | > 0.63 | 106 | 2.51e-09 | 225.49 | – | – | – | – | –
COc1cncc(C(=O)Nc2cnn3c2C(=O)N(c2ccc(Cl)c(Cl)c2)C[C@@H]3C)c1 [Co. No. 149] | > 0.63 | 107 | 1.66e-09 | 184.46 | – | – | – | – | –
Cc1cccc(C(=O)Nc2cnn3c2C(=O)N(c2ccc(C(F)(F)F)cc2)C[C@@H]3C)n1 [Co. No. 34] | > 2.5 | 116 | 8.32e-09 | 214.97 | – | – | – | – | –
CN1[C@@H]2C[C@@H](OC(=O)[C@H](CO)c3ccccc3)C[C@H]1[C@@H]1O[C@@H]12 [Scopolamine, scopolamine, reference compound] | – | – | – | – | 100 | 95.8 | 7246 | – | –
COc1cccc(C(=O)Nc2cnn3c2C(=O)N(c2ccc(C(F)(F)F)cc2)C[C@@H]3C)c1 [Co. No. 27] | > 2.5 | 106 | 6.61e-09 | 136.91 | – | – | – | – | –
C[C@H]1CN(c2ccc(C(F)(F)F)c(Cl)c2)C(=O)c2c(NC(=O)c3cccnc3NCCO)cnn21 (racemic) [Co. No. 214] | 0.32 | 112 | 5.25e-10 | – | – | – | – | – | –
C[C@H]1CN(c2ccc(C(F)(F)F)cc2)C(=O)c2c(NC(=O)c3cccc(S(N)(=O)=O)c3)cnn21 [Co. No. 177] | > 0.63 | 109 | 1.66e-09 | 280.43 | – | – | – | – | –
C[C@H]1CN(c2ccc(C(F)(F)F)cc2)C(=O)c2c(NC(=O)c3cccnc3NCCO)cnn21 (racemic) [Co. No. 213] | 1.12 | 103 | 1.02e-09 | 168.55 | – | – | – | – | –
C[C@H]1CN(c2ccc(Cl)cc2)C(=O)c2c(NC(=O)c3ccc(N)nc3)cnn21 [Co. No. 36] | 0.5 | 110 | 8.91e-09 | – | – | – | – | – | –
C[C@H]1CN(c2ccc(C(F)(F)F)c(F)c2)C(=O)c2c(NC(=O)c3cnccn3)cnn21 [Co. No. 127] | > 0.63 | 104 | 6.61e-09 | 236.55 | – | – | – | – | –
C[C@H]1CN(c2ccc(C(F)F)c(Cl)c2)C(=O)c2c(NC(=O)c3ccc(N)nc3)cnn21 [Co. No. 6] | > 2.5 | 114 | – | 177 | – | – | – | – | –
COc1cncc(C(=O)Nc2cnn3c2C(=O)N(c2ccc(C(F)(F)F)c(C)c2)C[C@@H]3C)c1 [Co. No. 151] | > 0.63 | 106 | 3.16e-09 | 135.98 | – | – | – | – | –

Compound | ED50 [1] [mg/kg] | Emax [2, 3] [%] | IC50 [2, 4] [M] | melting point [°C] | Rats with total distance >1500 cm (%) [1, 5] [%] | Rats with total distance >4400 cm (%) [1, 5] [%] | Total distance travelled, median (cm) ([1]; historical solvent-pretreated control rats, first 30 min, scopolamine 0.16 mg/kg i.v., JNJ-42153605 20 mg/kg i.v.) | IC50 ([2]; GTPγS-hmGluR2 anGT pIC50, membranes from CHO cells transfected with human mGlu2 receptor) [M] | Emax [2] [%]
Cc1cnc(N)c(C(=O)Nc2cnn3c2C(=O)N(c2ccc(Cl)c(Cl)c2)C[C@@H]3C)c1 [Co. No. 199] | 0.08 | 109 | 9.77e-10 | 220.49 | – | – | – | – | –
COc1cncc(C(=O)Nc2cnn3c2C(=O)N(c2ccc(C(F)(F)F)c(F)c2)C[C@@H]3C)c1 [Co. No. 153] | > 0.63 | 106 | 1.35e-08 | 143.17 | – | – | – | – | –
Cc1cc(C(=O)Nc2cnn3c2C(=O)N(c2ccc(Cl)cc2)C[C@@H]3C)cc(N)n1 [Co. No. 203] | > 0.63 | 105 | 1.12e-08 | 223.01 | – | – | – | – | –
C[C@H]1CN(c2ccc(Cl)c(Cl)c2)C(=O)c2c(NC(=O)c3cncc(F)c3)cnn21 [Co. No. 109] | > 0.63 | 105 | 1.38e-09 | 128.16 | – | – | – | – | –
Cc1ccnc(N)c1C(=O)Nc1cnn2c1C(=O)N(c1ccc(C(F)(F)F)cc1)C[C@@H]2C (racemic) [Co. No. 192] | > 0.63 | 110 | 2.69e-08 | 177.39 | – | – | – | – | –
C[C@H]1CN(c2ccc(C(F)(F)F)cc2)C(=O)c2c(NC(=O)c3cccc(F)c3)cnn21 [Co. No. 14] | > 2.5 | 102 | 2.75e-09 | 161.84 | – | – | – | – | –
COc1cncc(C(=O)Nc2cnn3c2C(=O)N(c2ccc(C(F)(F)F)cc2)C[C@@H]3C)c1C [Co. No. 122] | > 0.63 | 105 | 1.91e-07 | 181.87 | – | – | – | – | –
COc1cncc(C(=O)Nc2cnn3c2C(=O)N(c2ccc(C(F)(F)F)c(Cl)c2)C[C@@H]3C)c1C [Co. No. 121] | > 0.63 | 106 | 2.09e-08 | 160.45 | – | – | – | – | –
COc1cnc(C(=O)Nc2cnn3c2C(=O)N(c2ccc(C(F)(F)F)cc2)C[C@@H]3C)cn1 [Co. No. 39] | > 2.5 | 111 | 9.33e-09 | 191.33 | – | – | – | – | –
C[C@H]1CN(c2ccc(C(F)(F)F)cc2)C(=O)c2c(NC(=O)c3nccs3)cnn21 [Co. No. 15] | > 2.5 | 111 | 3.24e-09 | 213.94 | – | – | – | – | –
C[C@H]1CN(c2ccc(C(F)(F)F)c(CF)c2)C(=O)c2c(NC(=O)c3cccnc3N)cnn21 [Co. No. 210] | 0.32 | 106 | 2.09e-09 | 176.26 | – | – | – | – | –
COc1cc(N2C[C@H](C)n3ncc(NC(=O)c4ccccn4)c3C2=O)ccc1C(F)(F)F [Co. No. 111] | > 0.63 | 105 | 1.02e-08 | 217.95 | – | – | – | – | –
Cc1cnc(N)c(C(=O)Nc2cnn3c2C(=O)N(c2ccc(Cl)cc2)C[C@@H]3C)c1 [Co. No. 201] | > 0.63 | 108 | 4.9e-09 | – | – | – | – | – | –
C[C@H]1CN(c2ccc(Cl)c(OC(F)F)c2)C(=O)c2c(NC(=O)c3ccc(N)nc3)cnn21 [Co. No. 18] | > 2.5 | 117 | 4.27e-09 | – | – | – | – | – | –
C[C@H]1CN(c2ccc(C(F)(F)F)cc2)C(=O)c2c(NC(=O)c3cccc(S(=O)(=O)F)c3)cnn21 [Co. No. 217] | – | – | – | 161.88 | – | – | – | 1.07e-08 | 110
C[C@H]1CN(c2ccc(C(F)(F)F)cc2)C(=O)c2c(NC(=O)c3cncc(F)n3)cnn21 [Co. No. 219, 6-fluoro-N-[(7S)-7-methyl-4-oxo-5-[4-(trifluoromethyl)phenyl]-6,7-dihydropyrazolo[1,5-a]pyrazin-3-yl]pyrazine-2-carboxamide] | – | 107 | 3.31e-09 | 183.54 | – | – | – | – | –
